Test results as given in publication PMC12498222 (RSC Advances, 2025).
Where “and” joins values, the source holds several entries; their conditions need not be identical. Identical values can stand only once. Like-named read-outs stand apart in the source and are kept apart here.

Experiments:
MCF-7 [1] = assay: cells; settings: Homo sapiens, MCF7, 24 h, read-out: In vitro cytotoxicity IC50 (mean ± SD) MCF-7
MCF-7 [2] = settings: for anti-proliferative activity category: MCF-7, in words; for IC50: human
EGFR TK enzyme = EGFR TK enzyme (Homo sapiens, UniProt P00533); assay: biochemical; settings: EGFR IC50 (mean ± SD), ATP 1.65 μM, 30 min, room temperature
EGFR TK enzyme, sequence (P00533 25-1210): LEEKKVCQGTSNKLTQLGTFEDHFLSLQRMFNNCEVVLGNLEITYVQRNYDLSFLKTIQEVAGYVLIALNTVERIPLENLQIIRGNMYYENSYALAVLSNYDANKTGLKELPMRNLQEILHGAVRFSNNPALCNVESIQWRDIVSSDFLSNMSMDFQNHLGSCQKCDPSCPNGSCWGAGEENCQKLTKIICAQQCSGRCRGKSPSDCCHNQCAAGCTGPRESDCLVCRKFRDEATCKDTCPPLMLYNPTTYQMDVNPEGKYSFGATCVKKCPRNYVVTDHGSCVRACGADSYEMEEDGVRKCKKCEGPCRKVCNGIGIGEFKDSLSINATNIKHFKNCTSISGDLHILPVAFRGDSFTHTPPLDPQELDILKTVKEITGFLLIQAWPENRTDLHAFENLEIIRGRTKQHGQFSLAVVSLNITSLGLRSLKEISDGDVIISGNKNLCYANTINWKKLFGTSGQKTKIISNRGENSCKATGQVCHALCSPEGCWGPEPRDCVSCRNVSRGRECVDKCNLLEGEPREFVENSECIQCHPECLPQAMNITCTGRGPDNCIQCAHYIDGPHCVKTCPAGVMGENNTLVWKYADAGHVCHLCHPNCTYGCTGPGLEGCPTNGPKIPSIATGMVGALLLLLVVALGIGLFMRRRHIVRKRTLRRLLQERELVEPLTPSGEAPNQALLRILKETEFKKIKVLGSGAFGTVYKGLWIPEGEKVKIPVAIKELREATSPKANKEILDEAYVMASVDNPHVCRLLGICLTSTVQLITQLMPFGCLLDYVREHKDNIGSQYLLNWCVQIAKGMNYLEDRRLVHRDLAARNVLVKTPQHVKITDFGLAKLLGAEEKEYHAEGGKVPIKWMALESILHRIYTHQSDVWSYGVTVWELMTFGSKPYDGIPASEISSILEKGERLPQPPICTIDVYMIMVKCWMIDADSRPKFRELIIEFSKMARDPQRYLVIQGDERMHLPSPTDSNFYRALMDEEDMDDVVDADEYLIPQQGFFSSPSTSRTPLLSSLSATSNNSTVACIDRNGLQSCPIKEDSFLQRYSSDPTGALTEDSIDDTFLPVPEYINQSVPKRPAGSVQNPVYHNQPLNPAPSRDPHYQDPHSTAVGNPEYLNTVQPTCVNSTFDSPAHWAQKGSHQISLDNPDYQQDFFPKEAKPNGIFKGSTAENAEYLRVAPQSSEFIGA

| Structure (SMILES) | IC50 (MCF-7 [1]) | anti-proliferative activity category (MCF-7 [2]) | IC50 (MCF-7 [2]) | IC50 (EGFR TK enzyme) |
| --- | --- | --- | --- | --- |
| Nc1cc(N2C(=O)c3ccccc3C2=O)nc(SCC(=O)NN=Cc2ccc([N+](=O)[O-])cc2)n1 [6b, 2-((4-Amino-6-(1,3-dioxoisoindolin-2-yl)pyrimidin-2-yl)thio)-N′-(4-nitrobenzylidene)acetohydrazide] | 48.4 ± 2.8 µM | moderate activity |  |  |
| Nc1cc(N2C(=O)c3ccccc3C2=O)nc(SCC(=O)NN=Cc2ccc(Cl)cc2)n1 [6c, 2-((4-Amino-6-(1,3-dioxoisoindolin-2-yl)pyrimidin-2-yl)thio)-N′-(4-chlorobenzylidene)acetohydrazide] | 37.7 ± 3.6 µM | moderate activity | 31.8 ± 2 µM | 0.9 µM and 0.88 µM |
| CCNC(c1ccccc1)c1c(N)[nH]c(=O)[nH]c1=O (stereo not shown) [10b, 6-Amino-5-((ethylamino)(phenyl)methyl)pyrimidine-2,4(1H,3H)-dione] | 31.8 ± 2 µM | moderate activity | 37.7 ± 2.4 µM | 0.65 ± 0.02 µM |
| O=C1CCC(N2C(=O)c3ccccc3C2=O)C(=O)N1 (stereo not shown) [Thalidomide, reference compound] | 13.4 ± 0.5 µM |  |  |  |
| Nc1cc(N2C(=O)c3ccccc3C2=O)nc(SCC(=O)NN=Cc2cccc([N+](=O)[O-])c2)n1 [6a, 2-((4-Amino-6-(1,3-dioxoisoindolin-2-yl)pyrimidin-2-yl)thio)-N′-(3-nitrobenzylidene)acetohydrazide] | 62 ± 3.3 µM | lowest anti-proliferative activity |  |  |
| COc1ccc(C=NNC(=O)CSc2nc(N)cc(N3C(=O)c4ccccc4C3=O)n2)cc1OC [6g, 2-((4-Amino-6-(1,3-dioxoisoindolin-2-yl)pyrimidin-2-yl)thio)-N′-(3,4-dimethoxy-benzylidene)acetohydrazide] | 19.6 ± 1.5 µM | moderate activity |  |  |
| CCCCNC(c1ccccc1)c1c(N)[nH]c(=O)[nH]c1=O (stereo not shown) [10c, 6-Amino-5-((butylamino)(phenyl)methyl)pyrimidine-2,4(1H,3H)-dione] | 7.6 ± 0.5 µM | high anti-proliferative activity |  | 0.99 ± 0.03 µM |
| Nc1cc(N2C(=O)c3ccccc3C2=O)nc(SCC(=O)NN=Cc2ccc(O)cc2)n1 [6e, 2-((4-Amino-6-(1,3-dioxoisoindolin-2-yl)pyrimidin-2-yl)thio)-N′-(4-hydroxybenzylidene)acetohydrazide] | 75.4 ± 3.7 µM | lowest anti-proliferative activity |  |  |
| CNC(c1ccccc1)c1c(N)[nH]c(=O)[nH]c1=O (stereo not shown) [10a, 6-Amino-5-((methylamino)(phenyl)methyl)pyrimidine-2,4(1H,3H)-dione] | 8.6 ± 0.7 µM |  |  | 4.6 ± 0.11 µM |
| CN(C)C(c1ccccc1)c1c(N)[nH]c(=O)[nH]c1=O (stereo not shown) [10d, 6-Amino-5-((dimethylamino)(phenyl)methyl)pyrimidine-2,4(1H,3H)-dione] | 8.6 ± 0.7 µM | high anti-proliferative activity | 14.2 ± 1.2 µM |  |
